Measurements from US20210255193A1, “LYSINE REACTIVE PROBES AND USES THEREOF” (The Scripps Research Institute, priority 2017, published 2021).

Tests used:
Experiment in all cases: competitive isoTOP-ABPP
Type in all cases: binding
[1] = target: T1, TPD52L2 Tumor protein D54 (Homo sapiens, UniProt O43399); design: key to isoTOP-ABPP reactivity ratio at lysine O43399_K90: R = MS1 peak area ratio, DMSO (heavy) / compound-treated (light); conditions: for R value (DMSO/fragment) for probe 1 labeling: O43399_K90; for R value (DMSO/fragment) for probe 1 labeling / isoTOP-ABPP reactivity ratio at lysine O43399_K90 / isoTOP-ABPP ratio (R) at liganded lysine O43399_K90: 50 uM, in vitro; for R value (DMSO/fragment) for probe 1 labeling / isoTOP-ABPP reactivity ratio at lysine O43399_K90: 231 sol; for isoTOP-ABPP ratio (R) at liganded lysine O43399_K90: sol, 231
T1 construct: isoTOP-ABPP experiments performed in cell lysates (in vitro); endogenous in cells; host or cells: MDA-MB-231 soluble lysate
T1 sequence (O43399 whole entry, the tested form may be a part): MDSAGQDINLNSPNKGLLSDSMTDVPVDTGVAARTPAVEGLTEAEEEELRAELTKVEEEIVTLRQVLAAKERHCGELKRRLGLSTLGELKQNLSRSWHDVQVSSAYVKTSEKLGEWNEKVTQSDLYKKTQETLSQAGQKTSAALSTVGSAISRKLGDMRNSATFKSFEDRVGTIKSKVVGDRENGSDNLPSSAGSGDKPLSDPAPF
Procedure: (§1) In vitro covalent fragment treatment for isoTOP-ABPP. All compounds were made up as solutions in DMSO (100×) and were used at a final concentration of 50 μM for activated esters and 100 μM for guanidinylating agents. For each profiling sample, 0.5 ml of lysate was treated with 5 μl of the 100× compound stock solution or 5 μl of DMSO. Samples were treated with activated esters for
(§2) STP-alkyne labeling and click chemistry. For concentration-dependent reactivity measurements by isoTOP-ABPP, 0.5 ml proteome aliquots were treated at ambient temperature with 1 mM STP-alkyne 1 (5 μl of 100 mM stock in DMSO) and 0.1 mM STP alkyne 1 (5 μl of 10 mM stock in DMSO), respectively. For competitive isoTOP-ABPP, after in vitro fragment treatment (detailed above), the samples were labeled for 1 h at ambient temperature with 0.1 mM STP-alkyne 1 (5 μl of 10 mM stock in DMSO). Samples were conjugated by copper-mediated azide-alkyne cycloaddition (CuAAC) to either the light (1 mM STP-alkyne or fragment treated) or heavy (0.1 mM STP-alkyne or DMSO treated) TEV tags (10 μl of 5 mM stocks in DMSO, final concentration=100 μM) using tris(2-carboxyethyl)phosphine hydrochloride
(§3) R value calculation and processing. The ratios of light and heavy MS1 peaks for each unique peptide were quantified with a CIMAGE software using default parameters (3 MS1 acquisitions per peak and signal to noise threshold set to 2.5). For reactivity measurements by isoTOP-ABPP, the R value was calculated from the ratio of MS1 peak areas, comparing the 1 mM STP alkyne sample (light TEV tag) with the 0.1 mM STP alkyne sample (heavy TEV tag). For competitive isoTOP-ABPP, the R value was calculated from the ratio of MS1 peak areas, comparing the DMSO treated sample (heavy TEV tag) with the compound treated sample (light TEV tag). […] Ratios for unique peptide entries are calculated for each experiment; overlapping peptides with the same modified lysine (for example, different charge states, MudPIT chromatographic steps or tryptic termini) are grouped together and the median ratio is reported as the final ratio (R). The peptide ratios reported by CIMAGE were further filtered to ensure the removal or correction of low-quality ratios in each individual data set. The quality filters applied were the following: removal of half tryptic peptides; for ratios with high standard deviations from the median (90% of the median or above) the lowest ratio was taken instead of the median; removal of peptides with R=20 and only a single MS2 event triggered during the elution of the parent ion; manual annotation of all the peptides with ratios of 20, removing any peptides with low quality elution profiles that remained after the previous curation steps (only done for competitive isoTOP-ABPP).
(§4) Cross-data processing for fragment screening. For compound treated samples, biological replicates of the same condition were averaged, if the standard deviation was below 60% of the mean; otherwise, for lysines with at least one R value <4 for a particular compound, the lowest value of the ratio set was taken. For lysines, where all R values for a particular compound were ≥4, the average was reported. For peptides containing several possible modified lysines, the lysine with the highest number of quantification events was used for analysis and the remaining, redundant peptides were reported as alternative modification sites. Peptides included in the aggregate dataset (those used for further bioinformatics and statistical analyses) were required to have been quantified in 2 experiments for competitive isoTOP-ABPP. Lysines were categorized as liganded, if they had at least one ratio R≥4 (hit fragments). For liganded lysines with R=20 for all liganding events, lysines were required to have been quantified with R=20 in two separate experiments and were further required to have been quantified with R<20 in one additional experiment.

[2] = target: T2, PLIN3 Perilipin-3 (Homo sapiens, UniProt O60664); design: key to isoTOP-ABPP reactivity ratio at lysine O60664_K257 / isoTOP-ABPP reactivity ratio at lysine O60664_K140: R = MS1 peak area ratio, DMSO (heavy) / compound-treated (light); capped at 20; conditions: 50 uM, 231 sol, in vitro
T2 construct: isoTOP-ABPP experiments performed in cell lysates (in vitro); endogenous in cells; host or cells: MDA-MB-231 soluble lysate
T2 sequence (O60664 1-434): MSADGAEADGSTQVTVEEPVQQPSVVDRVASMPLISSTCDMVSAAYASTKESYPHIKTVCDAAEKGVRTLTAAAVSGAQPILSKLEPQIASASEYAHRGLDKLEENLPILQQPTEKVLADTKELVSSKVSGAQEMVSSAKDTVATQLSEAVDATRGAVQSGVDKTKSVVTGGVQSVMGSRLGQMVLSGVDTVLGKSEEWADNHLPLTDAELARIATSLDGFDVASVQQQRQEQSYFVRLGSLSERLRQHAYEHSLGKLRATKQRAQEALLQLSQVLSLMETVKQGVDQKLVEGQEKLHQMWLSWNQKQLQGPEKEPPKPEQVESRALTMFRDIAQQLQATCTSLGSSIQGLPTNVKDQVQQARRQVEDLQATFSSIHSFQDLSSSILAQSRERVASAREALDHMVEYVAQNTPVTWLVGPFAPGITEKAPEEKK
Procedure: as §1, §2, §3, §4

[3] = target: T3, KPNA2 Importin subunit alpha-2 (Homo sapiens, UniProt P52292); conditions: for R value (DMSO/fragment) for probe 1 labeling: P52292_K459; for R value (DMSO/fragment) for probe 1 labeling / isoTOP-ABPP reactivity ratio at lysine P52292_K459 / isoTOP-ABPP ratio (R) at liganded lysine P52292_K459: 50 uM, in vitro; for R value (DMSO/fragment) for probe 1 labeling / isoTOP-ABPP reactivity ratio at lysine P52292_K459: 231 sol; for isoTOP-ABPP ratio (R) at liganded lysine P52292_K459: sol, 231
T3 construct: isoTOP-ABPP experiments performed in cell lysates (in vitro); endogenous in cells; host or cells: soluble proteome of human cancer cell lines (MDA-MB-231, Ramos, Jurkat)
How it was run: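 Cell lysate (0.5 ml) was pre-treated with fragment, 50 μM for activated esters or 100 μM for guanidinylating agents, versus DMSO, then labeled 1 h at ambient temperature with 0.1 mM STP-alkyne. Light/heavy TEV tags attached by CuAAC; R = DMSO/compound MS1 peak-area ratio, median per lysine.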

[4] = target: T4, ADK Adenosine kinase (Homo sapiens, UniProt P55263); design: key to isoTOP-ABPP reactivity ratio at lysine P55263_K88: R = MS1 peak area ratio, DMSO (heavy) / compound-treated (light); conditions: for R value (DMSO/fragment) for probe 1 labeling: P55263_K88; for R value (DMSO/fragment) for probe 1 labeling / isoTOP-ABPP reactivity ratio at lysine P55263_K88 / isoTOP-ABPP ratio (R) at liganded lysine P55263_K88: 50 uM, in vitro; for R value (DMSO/fragment) for probe 1 labeling / isoTOP-ABPP reactivity ratio at lysine P55263_K88: 231 sol; for isoTOP-ABPP ratio (R) at liganded lysine P55263_K88: sol, 231
T4 construct: isoTOP-ABPP experiments performed in cell lysates (in vitro); endogenous in cells; host or cells: soluble proteome of human cancer cell lines (MDA-MB-231, Ramos, Jurkat)
T4 sequence (P55263 whole entry, the tested form may be a part): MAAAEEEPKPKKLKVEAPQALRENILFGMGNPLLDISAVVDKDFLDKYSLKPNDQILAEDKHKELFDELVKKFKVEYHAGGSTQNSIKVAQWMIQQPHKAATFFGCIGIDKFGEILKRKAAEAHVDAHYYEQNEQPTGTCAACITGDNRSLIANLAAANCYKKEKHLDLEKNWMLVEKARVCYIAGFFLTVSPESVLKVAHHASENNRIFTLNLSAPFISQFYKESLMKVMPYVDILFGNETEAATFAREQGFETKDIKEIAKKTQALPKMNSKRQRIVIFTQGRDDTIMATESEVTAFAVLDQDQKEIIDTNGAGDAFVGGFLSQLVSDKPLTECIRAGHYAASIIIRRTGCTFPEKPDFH
Procedure: as §1, §2, §3, §4

[5] = target: T5, ABHD10 Abhydrolase domain-containing protein 10, mitochondrial (Homo sapiens, UniProt Q9NUJ1); design: key to isoTOP-ABPP reactivity ratio at lysine Q9NUJ1_K185: R = MS1 peak area ratio, DMSO (heavy) / compound-treated (light); capped at 20; conditions: for R value (DMSO/fragment) for probe 1 labeling: Q9NUJ1_K185; for R value (DMSO/fragment) for probe 1 labeling / isoTOP-ABPP reactivity ratio at lysine Q9NUJ1_K185 / isoTOP-ABPP ratio (R) at liganded lysine Q9NUJ1_K185: 50 uM, in vitro; for R value (DMSO/fragment) for probe 1 labeling / isoTOP-ABPP reactivity ratio at lysine Q9NUJ1_K185: 231 sol; for isoTOP-ABPP ratio (R) at liganded lysine Q9NUJ1_K185: sol, 231
T5 construct: endogenous in cells; host or cells: MDA-MB-231 lysate
T5 sequence (Q9NUJ1 53-306): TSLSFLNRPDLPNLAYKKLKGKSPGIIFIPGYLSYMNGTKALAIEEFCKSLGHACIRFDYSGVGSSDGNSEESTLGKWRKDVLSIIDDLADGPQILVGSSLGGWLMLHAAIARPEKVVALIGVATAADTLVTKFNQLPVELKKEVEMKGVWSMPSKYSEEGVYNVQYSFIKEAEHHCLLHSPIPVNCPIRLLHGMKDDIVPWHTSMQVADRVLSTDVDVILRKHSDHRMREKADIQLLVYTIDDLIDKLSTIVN
Procedure: as §1, §2, §3, §4

Row | Compound | R value (DMSO/fragment) for probe 1 labeling [1] | R value (DMSO/fragment) for probe 1 labeling ([2]; O60664_K257) | R value (DMSO/fragment) for probe 1 labeling [3] | R value (DMSO/fragment) for probe 1 labeling [4] | R value (DMSO/fragment) for probe 1 labeling [5] | isoTOP-ABPP reactivity ratio at lysine O43399_K90 [1] | isoTOP-ABPP reactivity ratio at lysine P52292_K459 [3] | isoTOP-ABPP reactivity ratio at lysine P55263_K88 [4] | other results
1 | O=C(CCc1cn(-c2ccccc2)nc1-c1ccccc1)Oc1c(F)c(F)c(F)c(F)c1F [fragment 19, Pentafluorophenyl 3-(1,3-diphenyl-1H-pyrazol-4-yl)propanoate] | 2.6 | 2.2 | 2.3 | 0.8 | 1.2 | – | – | – | R value (DMSO/fragment) for probe 1 labeling ([2]; O60664_K140): 1.5
2 | O=C(Oc1c(F)c(F)c(F)c(F)c1F)C(c1ccccc1)c1ccccc1 [fragment 20, Pentafluorophenyl 2,2-diphenylacetate] | 1.5 | 2.5 | 5.5 | 0.8 | 1.1 | – | – | – | –
3 | O=C(Oc1c(F)c(F)c(F)c(F)c1F)c1cc(C(F)(F)F)cc(C(F)(F)F)c1 [fragment 21, Pentafluorophenyl 3,5-bis(trifluoromethyl)benzoate] | 2.0 | 2.0 | 1.0 | 0.8 | 4.7 | – | – | – | –
4 | Cn1cc(CC(=O)Oc2c(F)c(F)c(F)c(F)c2F)c2ccccc21 [fragment 22, Pentafluorophenyl 2-(1-methyl-1H-indol-3-yl)acetate] | 3.6 | 2.6 | 6.2 | 1.0 | 1.5 | – | – | – | –
5 | COc1cc(CCC(=O)Oc2c(F)c(F)c(F)c(F)c2F)cc(OC)c1OC [fragment 23, Pentafluorophenyl 3-(3,4,5-trimethoxyphenyl)propanoate] | 1.5 | – | 1.9 | 0.7 | 2.0 | – | – | – | –
6 | O=C(Oc1c(F)c(F)c(F)c(F)c1F)C1CCN(C(=O)OCc2ccccc2)CC1 [fragment 24, 1-Benzyl 4-(pentafluorophenyl) piperidine-1,4-dicarboxylate] | – | – | – | – | – | 1.9 | 1.2 | 1.0 | isoTOP-ABPP reactivity ratio at lysine O60664_K140 [2]: 1.7
7 | O=C(Oc1c(F)c(F)c(F)c(F)c1F)c1ccc2ccccc2n1 [fragment 25, Pentafluorophenyl quinoline-2-carboxylate] | – | – | – | – | – | 1.5 | 1.3 | 0.8 | isoTOP-ABPP reactivity ratio at lysine Q9NUJ1_K185 [5]: 1.5
8 | O=C(Oc1ccc([N+](=O)[O-])cc1[N+](=O)[O-])c1cc(C(F)(F)F)cc(C(F)(F)F)c1 [fragment 31, 2,4-Dinitrophenyl 3,5-bis(trifluoromethyl)benzoate] | – | – | – | – | – | 3.3 | 1.3 | 0.7 | isoTOP-ABPP reactivity ratio at lysine Q9NUJ1_K185 [5]: 4.4
9 | Cn1cc(CC(=O)Oc2ccc([N+](=O)[O-])cc2[N+](=O)[O-])c2ccccc21 [fragment 32, 2,4-Dinitrophenyl 2-(1-methyl-1H-indol-3-yl)acetate] | – | – | – | – | – | 2.7 | 1.8 | 1.4 | isoTOP-ABPP reactivity ratio at lysine Q9NUJ1_K185 [5]: 1.4
10 | O=C(Oc1ccc([N+](=O)[O-])cc1[N+](=O)[O-])C1CCN(C(=O)OCc2ccccc2)CC1 [fragment 34, 1-Benzyl 4-(2,4-dinitrophenyl) piperidine-1,4-dicarboxylate] | – | – | – | – | – | – | – | – | isoTOP-ABPP ratio (R) at liganded lysine O43399_K90 [1]: 1.8; isoTOP-ABPP ratio (R) at liganded lysine P52292_K459 [3]: 1.0; isoTOP-ABPP ratio (R) at liganded lysine P55263_K88 [4]: 20.0; isoTOP-ABPP ratio (R) at liganded lysine Q9NUJ1_K185 [5]: 1.5
11 | O=C(CC12CC3CC(CC(C3)C1)C2)Oc1ccc([N+](=O)[O-])cc1[N+](=O)[O-] [fragment 38, 2,4-Dinitrophenyl 2-(adamantan-1-yl)acetate] | – | – | – | – | – | – | – | – | isoTOP-ABPP ratio (R) at liganded lysine O43399_K90 [1]: 2.9; isoTOP-ABPP ratio (R) at liganded lysine P52292_K459 [3]: 20.0; isoTOP-ABPP ratio (R) at liganded lysine P55263_K88 [4]: 0.9; isoTOP-ABPP ratio (R) at liganded lysine Q9NUJ1_K185 [5]: 3.3
12 | CC(=O)Oc1ccc([N+](=O)[O-])cc1[N+](=O)[O-] [fragment 43, 2,4-Dinitrophenyl acetate] | – | – | – | – | – | – | – | – | isoTOP-ABPP ratio (R) at liganded lysine O43399_K90 [1]: 1.1; isoTOP-ABPP ratio (R) at liganded lysine P52292_K459 [3]: 2.6; isoTOP-ABPP ratio (R) at liganded lysine P55263_K88 [4]: 0.9; isoTOP-ABPP ratio (R) at liganded lysine Q9NUJ1_K185 [5]: 1.3
13 | O=C(Oc1c(F)c(F)c(C(F)(F)F)c(F)c1F)c1cc(C(F)(F)F)cc(C(F)(F)F)c1 [fragment 47, 2,3,5,6-Tetrafluoro-4-(trifluoromethyl)phenyl 3,5-bis(trifluoromethyl)benzoate] | – | – | – | – | – | – | – | – | isoTOP-ABPP ratio, lysine O43399_K90 ([1]; 50 uM_231_sol_in vitro): 2.0; isoTOP-ABPP ratio, lysine P52292_K459 ([3]; 50 uM_231_sol_in vitro): 1.2; isoTOP-ABPP ratio, lysine P55263_K88 ([4]; 50 uM_231_sol_in vitro): 0.8; isoTOP-ABPP ratio, lysine Q9NUJ1_K185 ([5]; 50 uM_231_sol_in vitro): 1.8
